Where “and” joins values, the source holds several entries; their conditions need not be identical. Identical values can stand only once. Like-named read-outs stand apart in the source and are kept apart here.
Key:
[1] = Acute rat toxicity prediction using GUSAR software
Text: Given the potential toxicity concerns associated with both trimetazidine and profens, including rare gastrointestinal, hepatic, renal, and central nervous system effects, we evaluated the acute toxicity of the newly synthesized trimetazidine–profen hybrid molecules.
GUSAR software was developed to generate QSAR/QSPR models using appropriate training datasets. It enables an in silico prediction of LD50 values in rats for four routes of administration: oral, intravenous, intraperitoneal, and subcutaneous.
We employed the software to perform quantitative in silico predictions of the LD50 values for the synthesized trimetazidine–profen hybrids 3a–e.

[2] = Hydroxyl radical scavenging activity (HRSA), Fenton reaction / 1,10-phenanthroline; format: biochemical; conditions: IC50 ± SD, triplicate; 60 min at 37 °C, pH 7.40
Protocol: The hydroxyl radical-scavenging activity of the samples was measured according to the method of Luo et al.. In this system, hydroxyl radicals were generated by the Fenton reaction. Hydroxyl radicals could oxidize Fe^2+ into Fe^3+, and only Fe^2+ could be combined with 1,10-phenanthroline to form a red compound (1,10-phenanthroline-Fe^2+) with a maximum absorbance at 536 nm. The concentration of the hydroxyl radical was reflected by the degree of decolorization of the reaction solution. In test tubes 1 mL of 1,10-phenanthroline solution (0.75 mM), 2.0 mL of phosphate buffer saline (0.2 M, pH 7.40), and 1 mL of the samples/standard were added and mixed homogeneously. A total of 1.0 mL of the FeSO4 solution (0.75 mM) was then pipetted into the mixture. The reaction was initiated by adding 1.0 mL H2O2 (0.03% v/v). After incubation at 37°C for 60 min in a water bath, the absorbance of the reaction mixture was measured at 536 nm against reagent blank. The reaction mixture without any antioxidant was used as the negative control, and without H2O2 was used as the blank. The hydroxyl radical scavenging activity (HRSA) was calculated by the following formula:(2) I,%(HRSA)=AS−An/Ab−An×100 where As, An, and Ab were the absorbance values determined at 536 nm of the sample, the negative control, and the blank after reaction, respectively.

[3] = Lipophilicity as RM values by reversed-phase thin-layer chromatography (RP-TLC); format: physicochemical
Protocol: In this study, the lipophilicity of the synthesized trimetazidine–profen derivatives was evaluated using a practical and widely applied technique—reversed-phase thin-layer chromatography (RP-TLC)—following the methodology outlined by Pontiki and Hadjipavlou-Litina.
The lipophilicity of the trimetazidine–profen derivatives was determined following the procedure described by Pontiki and Hadjipavlou-Litina.

human albumin = biological target: T1, human albumin (Homo sapiens, UniProt P02768); experiment: Inhibition of albumin denaturation (IAD); format: biochemical
T1 construct: purchased BB-NCIPD Ltd., Sofia, Bulgaria
Protocol: The in vitro analysis of the anti-inflammatory activity was evaluated by measuring the inhibition of albumin denaturation (IAD). The analysis was carried out according to the method of Manolov et al. with minor modifications. The experiment was conducted using human albumin. A 1% albumin solution was prepared in distilled water at pH 7.4. Test samples and standards were initially dissolved in 1 mL of DMSO, then supplemented with 1% Tween 80 in PBS to achieve a final stock solution concentration of 1000 μg/mL. Subsequently, a series of working solutions at varying concentrations (20–500 μg/mL) in 1% Tween 80/PBS were prepared. The reaction mixture consisted of 2 mL of the test sample or standard at varying concentrations and 1 mL of 1% albumin. The mixture was incubated at 37 °C for 15 min, followed by heating at 70 °C for 15 min in a water bath. After cooling, the turbidity was measured at 660 nm using a spectrophotometer (CamSpec M508, Leeds, UK). Ibuprofen served as the standard. The experiment was conducted in triplicate. The percentage inhibition of albumin denaturation (IAD) was calculated against the control. The control sample consisted of albumin at the same concentration dissolved in distilled water.(3) %IAD=Ablank−Asample/Ablank×100

[4] = Hydrogen peroxide scavenging activity (HPSA); format: biochemical; conditions: IC50 ± SD, triplicate; 10 min at 37 °C, pH 7.4
Protocol: The Manolov et al. approach was used to evaluate a capacity to scavenge hydrogen peroxide. A 43 mM solution of H2O2 was prepared in a potassium phosphate buffer solution (0.2 M, pH 7.4). The analysis of the samples was carried out as follows: in test tubes, 0.6 mL H2O2 (43 mM), 1 mL sample/standard with different concentrations (20–1000 µg/mL), and 2.4 mL potassium phosphate buffer solution were mixed. The mixture was stirred and incubated in the dark for 10 min at 37 °C. Absorbance was measured at 230 nm with a spectrophotometer (CamSpec M508, Leeds, UK) against a blank solution containing the phosphate buffer and H2O2 without the sample. […] The percentage HPSA of the samples was evaluated by comparing with a blank sample, and was calculated using the following formula:(1) I,%(HPSA)=Ablank−(ATS−ACS)/Ablank×100 where Ablank is the absorbance of the blank sample, ACS is the absorbance of the control sample, and ATS is the absorbance of the test sample.

[5] = composite across IP, IV, oral, SC GUSAR predictions, lower = more toxic, read-out: geometric mean of the four LD50 values

T1 sequence (P02768 25-609): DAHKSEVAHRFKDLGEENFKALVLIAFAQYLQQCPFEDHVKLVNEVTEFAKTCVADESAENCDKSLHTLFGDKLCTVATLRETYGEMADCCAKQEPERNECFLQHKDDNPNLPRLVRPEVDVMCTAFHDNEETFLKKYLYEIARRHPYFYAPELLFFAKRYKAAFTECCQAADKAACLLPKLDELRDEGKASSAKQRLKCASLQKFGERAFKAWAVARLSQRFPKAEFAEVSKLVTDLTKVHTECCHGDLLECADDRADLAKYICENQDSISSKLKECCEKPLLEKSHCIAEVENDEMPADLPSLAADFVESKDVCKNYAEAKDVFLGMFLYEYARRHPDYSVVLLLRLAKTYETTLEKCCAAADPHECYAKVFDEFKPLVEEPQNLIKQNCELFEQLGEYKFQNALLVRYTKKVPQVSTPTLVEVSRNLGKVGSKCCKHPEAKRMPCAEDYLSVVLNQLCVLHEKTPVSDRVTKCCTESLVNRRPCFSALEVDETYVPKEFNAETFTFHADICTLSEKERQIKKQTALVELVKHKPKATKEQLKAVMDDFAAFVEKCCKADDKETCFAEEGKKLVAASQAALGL

| Compound | LD50 [1, 5] [mg/kg] | HRSA IC50 [2] | RM ± SD [3] | IC50 (human albumin) [µM] | HPSA IC50 [4] [µg/mL] | LD50 [1] [mg/kg] |
| --- | --- | --- | --- | --- | --- | --- |
| COc1ccc(CN2CCN(C(=O)C(C)c3ccc(CC(C)C)cc3)CC2)c(OC)c1OC (stereo not drawn) [3a, 2-(4-isobutylphenyl)-1-(4-(2,3,4-trimethoxybenzyl)piperazin-1-yl)propan-1-one] | ~212 | 77.98 µg/mL | 1.68 ± 0.021 and 1.68 | 244 | 97.55 ± 1.21 |  |
| COc1ccc(CN2CCN(C(=O)C(C)c3cccc(C(=O)c4ccccc4)c3)CC2)c(OC)c1OC (stereo not drawn) [3b, 2-(3-benzoylphenyl)-1-(4-(2,3,4-trimethoxybenzyl)piperazin-1-yl)propan-1-one] | ~398 | 74.72 ± 0.41 µg/mL and 74.6 to 74.7 µg/mL | 1.55 ± 0.015 and 1.55 | 234 | 93.56 ± 1.29 |  |
| COc1ccc2cc(C(C)C(=O)N3CCN(Cc4ccc(OC)c(OC)c4OC)CC3)ccc2c1 (stereo not drawn) [3c, 2-(6-methoxynaphthalen-2-yl)-1-(4-(2,3,4-trimethoxybenzyl)piperazin-1-yl)propan-1-one] | ~391 | 71.13 µg/mL | 1.61 ± 0.020 and 1.61 | 227 | 93.07 ± 0.43 |  |
| COc1ccc(CN2CCN(C(=O)C(C)c3ccc(-c4ccccc4)c(F)c3)CC2)c(OC)c1OC (stereo not drawn) [3d, 2-(2-fluoro-[1,1’-biphenyl]-4-yl)-1-(4-(2,3,4-trimethoxybenzyl)piperazin-1-yl)propan-1-one] | ~287 | 74.59 ± 1.02 µg/mL and 74.6 to 74.7 µg/mL | 1.45 ± 0.008 and 1.45 | 235 | 135.25 ± 13.19 |  |
| COc1ccc(CN2CCN(C(=O)C(C)c3ccc4c(c3)[nH]c3ccc(Cl)cc34)CC2)c(OC)c1OC (stereo not drawn) [3e, 2-(6-chloro-9H-carbazol-2-yl)-1-(4-(2,3,4-trimethoxybenzyl)piperazin-1-yl)propan-1-one] | ~369 | 92.56 µg/mL | 1.55 ± 0.016 and 1.55 | 225 | 99.75 ± 0.75 |  |
| CC(C)Cc1ccc(C(C)C(=O)O)cc1 (stereo not drawn) [Ibuprofen, reference compound] |  |  | 1.11 ± 0.01 |  |  |  |
| COc1ccc(CN2CCNCC2)c(OC)c1OC [compound 1, 1-[(2,3,4-trimethoxyphenyl)methyl]piperazine, reference compound] |  |  |  |  |  | ~246 |

Source: paper PMC12472577, “Trimetazidine–Profen Hybrid Molecules: Synthesis, Chemical Characterization, and Biological Evaluation of Their Racemates” (Pharmaceuticals, 2025)
